Experimental findings from PubChem BioAssay (NCI) are described below.

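Values below derive from 48-hour exposures of cells grown in 96-well plates, with endpoints linearly interpolated between the two concentrations bracketing the appropriate inhibition level. GI50 = concentration required for 50% inhibition of growth. TGI marks complete inhibition of growth.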

Test systems include 786-0 renal; UO-31 renal; EKVX NSCLC; HL-60(TB) leukemia; COLO 205 colon; NCI-H226 lung; HOP-92 NSCLC; NCI-H522 lung; TK-10 renal; NCI-H460 lung.
Common to all, as to experiment: growth of human tumour cells (NCI), 48 h

For `COc1cc(/C=C/C(=O)c2cccc(-n3cc(-c4ccccc4)[nH]c3=O)c2)ccc1O`, the GI50 in the assay on 786-0 renal was 2.37 µM; in the assay with UO-31 renal it was 2.01 µM; in the assay with EKVX NSCLC, 6.38 µM; in the assay with HL-60(TB) leukemia, 2.07 µM; with COLO 205 colon it was 3.85 µM; with NCI-H226 lung, 6.35 µM. Moreover, the GI50 is 1.99 µM in the assay with HOP-92 NSCLC, 1.78 µM with NCI-H522 lung, 9.52 µM with TK-10 renal and 3.01 µM in the assay on NCI-H460 lung. The TGI with 786-0 renal came to 7.93 µM; in the assay with UO-31 renal, 8.73 µM; with EKVX NSCLC it was 36.3 µM; in the assay with HL-60(TB) leukemia, 5.53 µM; with COLO 205 colon, 9.91 µM; in the assay with NCI-H226 lung, 17.8 µM. Also, the TGI with HOP-92 NSCLC worked out at 6.68 µM; in the assay on NCI-H522 lung, 6.12 µM; with TK-10 renal, 31.2 µM; in the assay on NCI-H460 lung it was 8.68 µM.
Turning to `NC(=O)c1c(NC(=O)c2ccc(C(F)(F)F)cc2Cl)sc2c1CCC(=O)C2`, the GI50 was 0.475 µM in the assay on 786-0 renal; 0.237 µM with UO-31 renal; 1.62 µM in the assay with EKVX NSCLC; 0.273 µM in the assay with HL-60(TB) leukemia; 0.382 µM in the assay on COLO 205 colon; 1.34 µM with NCI-H226 lung. Also, the GI50 was 0.426 µM with HOP-92 NSCLC, 0.186 µM with NCI-H522 lung, 0.423 µM with TK-10 renal and 1.29 µM in the assay on NCI-H460 lung. For the same compound, the TGI in the assay on 786-0 renal is 15.6 µM; with UO-31 renal, 0.809 µM; in the assay on EKVX NSCLC, 4.93 µM; in the assay on HL-60(TB) leukemia, 1.09 µM; in the assay on COLO 205 colon, 1.49 µM; in the assay on NCI-H226 lung it was 5.85 µM. For the same compound, the TGI turned out to be 2.88 µM with HOP-92 NSCLC, 0.844 µM with NCI-H522 lung, 4.07 µM in the assay on TK-10 renal and 9.48 µM with NCI-H460 lung.
As to `CC1Nc2ccccc2NC1C=C(C#N)C#N` (stereo unspecified), the TGI with 786-0 renal was determined as 29.6 µM; in the assay with UO-31 renal it was 28.3 µM; in the assay with EKVX NSCLC, 37.1 µM; with HL-60(TB) leukemia it was 4.69 µM; in the assay with COLO 205 colon it was 34.4 µM; in the assay with NCI-H226 lung, 36.9 µM. Moreover, the TGI with HOP-92 NSCLC was determined as 28.4 µM; in the assay on NCI-H522 lung, 25.3 µM; with TK-10 renal, 34.2 µM; in the assay with NCI-H460 lung, 42.5 µM.
Turning to `N#C/C(=C\c1ccccn1)c1nc2ccccc2o1`, the GI50 with 786-0 renal is 35.3 µM; in the assay with UO-31 renal it was 18.8 µM; in the assay with EKVX NSCLC it was 24.2 µM; in the assay with HL-60(TB) leukemia it was 15.3 µM; with COLO 205 colon, 44.9 µM; with NCI-H226 lung it was 39.3 µM. Further, the GI50 was 0.0586 µM in the assay on HOP-92 NSCLC, 16.6 µM in the assay on NCI-H522 lung, 50.3 µM in the assay with TK-10 renal and 31.7 µM in the assay on NCI-H460 lung. Also, the TGI in the assay on 786-0 renal was more than 100 µM; in the assay with UO-31 renal it was 59.7 µM; in the assay on EKVX NSCLC, more than 100 µM; with HL-60(TB) leukemia it was 76.2 µM; with COLO 205 colon, more than 100 µM; in the assay on NCI-H226 lung it was more than 100 µM. In addition, the TGI in the assay with HOP-92 NSCLC is 20.7 µM; in the assay on NCI-H522 lung it was 37 µM; with TK-10 renal, more than 100 µM; in the assay with NCI-H460 lung it was more than 100 µM.
Turning to `CN1C=C(C(N)=O)Cc2ccsc21`, the TGI in the assay with 786-0 renal, with UO-31 renal, with EKVX NSCLC, in the assay with HL-60(TB) leukemia, in the assay on COLO 205 colon and with NCI-H226 lung was more than 100 µM in each case. In addition, the TGI with HOP-92 NSCLC, in the assay with NCI-H522 lung and in the assay on NCI-H460 lung was more than 100 µM each time.
In the case of `NNC(=O)C(=O)N/N=C1\CCCC1C(=O)CCC(=O)Nc1cccc(Cl)c1` (stereo unspecified), the TGI in the assay with 786-0 renal, with UO-31 renal, with EKVX NSCLC, with HL-60(TB) leukemia, in the assay with COLO 205 colon and in the assay on NCI-H226 lung was more than 100 µM throughout. Moreover, the TGI in the assay with HOP-92 NSCLC, with TK-10 renal and in the assay on NCI-H460 lung was more than 100 µM throughout.
As for `Nc1ccccc1SC(CC(=O)c1ccccc1)c1c(Cl)cccc1Cl` (stereo unspecified), the GI50 is 9.73 µM with 786-0 renal; 1.27 µM in the assay with UO-31 renal; 3.36 µM with HL-60(TB) leukemia; 10.9 µM with COLO 205 colon; 14.9 µM in the assay on NCI-H226 lung; 6.11 µM with HOP-92 NSCLC. Also, the GI50 is 3.86 µM in the assay with NCI-H522 lung, 4.71 µM with TK-10 renal and 4.59 µM with NCI-H460 lung. In addition, the TGI with 786-0 renal is 23.2 µM; in the assay with UO-31 renal it was 4.64 µM; in the assay on HL-60(TB) leukemia it was 11.7 µM; in the assay with COLO 205 colon, 29.9 µM; in the assay with NCI-H226 lung, 40.6 µM; in the assay with HOP-92 NSCLC it was 21.5 µM. In addition, the TGI with NCI-H522 lung was 12.6 µM; with TK-10 renal it was 13.3 µM; in the assay with NCI-H460 lung it was 17.6 µM.
For the compound `Cc1ccc(C)c(NC(=O)C(=O)C(C2C(C)CC(=O)C2CC(=O)O)[N+](=O)[O-])c1` (stereo unspecified), the TGI in the assay with 786-0 renal, in the assay on UO-31 renal, with EKVX NSCLC, in the assay with HL-60(TB) leukemia, with COLO 205 colon and with NCI-H226 lung was more than 100 µM in each case. Further, the TGI in the assay with HOP-92 NSCLC, with TK-10 renal and with NCI-H460 lung was more than 100 µM throughout.
As for `O=C(Nc1cccc2[nH]c(C(F)(F)F)nc12)c1ccc(Br)cc1F`, the GI50 in the assay with 786-0 renal is 4.05 µM; in the assay on UO-31 renal, 1.98 µM; with HL-60(TB) leukemia, 3.05 µM; in the assay with COLO 205 colon, 2.63 µM; in the assay with NCI-H226 lung, 2.97 µM; in the assay on HOP-92 NSCLC, 1.38 µM. The GI50 in the assay with NCI-H522 lung is 2.55 µM; with TK-10 renal, 3.43 µM; with NCI-H460 lung, 3.45 µM. Also, the TGI with 786-0 renal came out at 15.1 µM; in the assay with UO-31 renal it was 7.36 µM; in the assay with HL-60(TB) leukemia, 16 µM; in the assay with COLO 205 colon it was 6.33 µM; in the assay with NCI-H226 lung, 12.8 µM; with HOP-92 NSCLC, 4.1 µM. For the same compound, the results for the TGI in the assay on NCI-H522 lung, in the assay with TK-10 renal and with NCI-H460 lung were 8.26 µM, 9.55 µM and 12.4 µM, respectively.
For the compound `O=[N+]([O-])c1cc2c(ccc3ccccc32)o1`, the GI50 in the assay on 786-0 renal is 0.72 µM; in the assay on UO-31 renal, 0.403 µM; in the assay on HL-60(TB) leukemia, 0.331 µM; in the assay with COLO 205 colon, 0.268 µM; in the assay with NCI-H226 lung, 1.27 µM; in the assay on HOP-92 NSCLC it was 0.257 µM. In addition, the results for the GI50 in the assay on NCI-H522 lung, in the assay with TK-10 renal and in the assay with NCI-H460 lung were 0.563 µM, 1.82 µM and 0.276 µM, respectively. For the same compound, the TGI in the assay on 786-0 renal turned out to be 3.63 µM; with UO-31 renal, 2.82 µM; with HL-60(TB) leukemia it was 4.52 µM; in the assay on COLO 205 colon, 1.04 µM; with NCI-H226 lung it was 4.22 µM; with HOP-92 NSCLC, 0.774 µM. Further, the TGI stood at 2.18 µM with NCI-H522 lung, 7.43 µM in the assay on TK-10 renal and 1.06 µM in the assay on NCI-H460 lung.
